Reference: the NIST ThermoML archive (doi:10.1016/j.jct.2018.07.026)
Numbers after ± are expanded uncertainties.

What was measured:
[1] = for Normal melting temperature: Crystal 1, DTA
[2] = Molar enthalpy of transition or fusion; details: Crystal 1; DSC
[3] = molar heat capacity at constant pressure; details: 78.8 kPa, Crystal, DSC

O=C(O)c1ccc([N+](=O)[O-])cc1C(=O)O [4-nitrophthalic acid]
Details | mass density [kg/m3]
[1], 298.15 K, 101.33 kPa, Crystal, Pycnometric method | 1647 ± 12

Details | Molar enthalpy of transition or fusion [kJ/mol] | Normal melting temperature [°C]
[1] | – | 167 ± 0.8
[2] | 37 ± 0.8 | –

[3]
Details | molar heat capacity at constant pressure [J/K/mol]
295.15 K | 229.53 ± 21
296.15 K | 230.9 ± 21
297.15 K | 232.06 ± 21
298.15 K | 233.01 ± 21
299.15 K | 233.22 ± 21
300.15 K | 234.59 ± 21
301.15 K | 236.28 ± 21
302.15 K | 237.02 ± 21
303.15 K | 237.97 ± 21
304.15 K | 239.13 ± 21
305.15 K | 239.66 ± 21
306.15 K | 240.19 ± 21
307.15 K | 240.5 ± 21
308.15 K | 240.61 ± 21
309.15 K | 240.93 ± 21
310.15 K | 242.51 ± 21
311.15 K | 241.24 ± 21
312.15 K | 242.62 ± 21
313.15 K | 243.57 ± 21
314.15 K | 244.09 ± 21
315.15 K | 244.83 ± 21
316.15 K | 245.36 ± 21
317.15 K | 246.1 ± 21
318.15 K | 246.2 ± 21
319.15 K | 246.94 ± 21
320.15 K | 248 ± 21
321.15 K | 248.74 ± 21
322.15 K | 249.37 ± 21
323.15 K | 250.22 ± 21
324.15 K | 250.95 ± 21
325.15 K | 251.69 ± 21
326.15 K | 252.22 ± 21
327.15 K | 252.64 ± 21
328.15 K | 253.38 ± 21
329.15 K | 254.02 ± 21
330.15 K | 254.54 ± 21
331.15 K | 255.07 ± 21
332.15 K | 255.71 ± 21
333.15 K | 256.23 ± 21
334.15 K | 256.76 ± 21
335.15 K | 257.5 ± 21
336.15 K | 258.34 ± 21
337.15 K | 256.97 ± 21
338.15 K | 258.45 ± 21
339.15 K | 258.98 ± 21
340.15 K | 259.4 ± 21
341.15 K | 259.93 ± 21
342.15 K | 260.67 ± 21
343.15 K | 261.41 ± 21
344.15 K | 261.72 ± 21
345.15 K | 262.25 ± 21
346.15 K | 262.78 ± 21
347.15 K | 263.52 ± 21
348.15 K | 263.94 ± 21
349.15 K | 264.47 ± 21
350.15 K | 264.99 ± 21
351.15 K | 265.42 ± 21
352.15 K | 266.05 ± 21
353.15 K | 266.26 ± 21
354.15 K | 266.79 ± 21
355.15 K | 267.32 ± 21
356.15 K | 267.74 ± 21
357.15 K | 267.95 ± 21
358.15 K | 268.58 ± 21
359.15 K | 268.9 ± 21
360.15 K | 269.64 ± 21
361.15 K | 269.85 ± 21
362.15 K | 270.27 ± 21
363.15 K | 270.59 ± 21
364.15 K | 271.12 ± 21
365.15 K | 271.86 ± 21
366.15 K | 272.17 ± 21
367.15 K | 272.81 ± 21
368.15 K | 273.23 ± 21
369.15 K | 274.07 ± 21
370.15 K | 274.39 ± 21
371.15 K | 275.02 ± 21
372.15 K | 275.23 ± 21
373.15 K | 275.66 ± 21
374.15 K | 276.29 ± 21
375.15 K | 276.61 ± 21
376.15 K | 277.03 ± 21
377.15 K | 277.56 ± 21
378.15 K | 278.51 ± 21
379.15 K | 279.03 ± 21
380.15 K | 279.56 ± 21
381.15 K | 280.3 ± 21
382.15 K | 280.83 ± 21
383.15 K | 281.57 ± 21
384.15 K | 282.1 ± 22
385.15 K | 282.84 ± 21
386.15 K | 283.26 ± 21
387.15 K | 284.21 ± 21
388.15 K | 284.95 ± 22
389.15 K | 285.37 ± 22
390.15 K | 286.64 ± 22
391.15 K | 287.48 ± 22
392.15 K | 288.22 ± 22
393.15 K | 288.32 ± 22
394.15 K | 289.27 ± 22
395.15 K | 290.33 ± 22

O=C(O)c1cccc([N+](=O)[O-])c1C(=O)O [3-nitro-1,2-benzenedicarboxylic acid]
Details | Molar enthalpy of transition or fusion [kJ/mol] | Normal melting temperature [°C]
[1] | – | 223.2 ± 0.5
[2] | 55.3 ± 1.3 | –

[3]
Details | molar heat capacity at constant pressure [J/K/mol]
295.15 K | 242.66 ± 11
296.15 K | 244.28 ± 11
297.15 K | 245.61 ± 11
298.15 K | 246.53 ± 11
299.15 K | 247.02 ± 11
300.15 K | 248.36 ± 11
301.15 K | 249.69 ± 11
302.15 K | 250.75 ± 11
303.15 K | 251.67 ± 11
304.15 K | 252.72 ± 11
305.15 K | 253.35 ± 11
306.15 K | 253.99 ± 11
307.15 K | 254.41 ± 11
308.15 K | 254.83 ± 11
309.15 K | 255.47 ± 11
310.15 K | 256.8 ± 11
311.15 K | 255.96 ± 11
312.15 K | 257.22 ± 11
313.15 K | 258 ± 11
314.15 K | 258.77 ± 11
315.15 K | 259.12 ± 11
316.15 K | 260.18 ± 11
317.15 K | 260.67 ± 11
318.15 K | 261.31 ± 11
319.15 K | 261.94 ± 11
320.15 K | 262.71 ± 11
321.15 K | 263.56 ± 11
322.15 K | 264.19 ± 11
323.15 K | 264.97 ± 11
324.15 K | 265.67 ± 11
325.15 K | 266.44 ± 11
326.15 K | 266.94 ± 11
327.15 K | 267.57 ± 11
328.15 K | 268.41 ± 11
329.15 K | 268.77 ± 11
330.15 K | 269.4 ± 11
331.15 K | 269.96 ± 11
332.15 K | 270.6 ± 12
333.15 K | 271.23 ± 11
334.15 K | 271.79 ± 12
335.15 K | 272.36 ± 12
336.15 K | 273.27 ± 12
337.15 K | 272.43 ± 12
338.15 K | 273.83 ± 12
339.15 K | 274.4 ± 12
340.15 K | 275.03 ± 12
341.15 K | 275.66 ± 12
342.15 K | 276.44 ± 12
343.15 K | 277.14 ± 12
344.15 K | 277.63 ± 12
345.15 K | 278.34 ± 12
346.15 K | 278.97 ± 12
347.15 K | 279.75 ± 12
348.15 K | 280.38 ± 12
349.15 K | 280.94 ± 12
350.15 K | 281.5 ± 12
351.15 K | 281.72 ± 12
352.15 K | 282.07 ± 12
353.15 K | 282.49 ± 12
354.15 K | 282.91 ± 12
355.15 K | 283.48 ± 12
356.15 K | 284.11 ± 12
357.15 K | 284.32 ± 12
358.15 K | 285.02 ± 12
359.15 K | 285.59 ± 12
360.15 K | 286.22 ± 12
361.15 K | 286.71 ± 12
362.15 K | 287.21 ± 12
363.15 K | 287.7 ± 12
364.15 K | 288.12 ± 12
365.15 K | 288.68 ± 12
366.15 K | 289.32 ± 12
367.15 K | 289.95 ± 12
368.15 K | 290.3 ± 12
369.15 K | 290.86 ± 12
370.15 K | 291.29 ± 12
371.15 K | 291.64 ± 12
372.15 K | 292.06 ± 12
373.15 K | 292.62 ± 12
374.15 K | 293.26 ± 12
375.15 K | 293.47 ± 12
376.15 K | 294.1 ± 12
377.15 K | 294.59 ± 12
378.15 K | 295.23 ± 12
379.15 K | 295.72 ± 12
380.15 K | 296.07 ± 12
381.15 K | 296.57 ± 12
382.15 K | 296.99 ± 12
383.15 K | 297.55 ± 12
384.15 K | 297.9 ± 12
385.15 K | 298.39 ± 12
386.15 K | 298.68 ± 12
387.15 K | 299.24 ± 12
388.15 K | 299.73 ± 12
389.15 K | 300.01 ± 12
390.15 K | 300.86 ± 12
391.15 K | 301.21 ± 12
392.15 K | 301.49 ± 12
393.15 K | 301.84 ± 12
394.15 K | 302.2 ± 12
395.15 K | 302.69 ± 12
396.15 K | 303.25 ± 12
397.15 K | 303.74 ± 12
398.15 K | 304.45 ± 12
399.15 K | 305.22 ± 13
400.15 K | 305.71 ± 13
401.15 K | 306.28 ± 13
402.15 K | 306.84 ± 13
403.15 K | 307.33 ± 13
404.15 K | 307.68 ± 13
405.15 K | 308.25 ± 13
406.15 K | 308.74 ± 13
407.15 K | 309.02 ± 13
408.15 K | 309.73 ± 13
409.15 K | 310.15 ± 13
410.15 K | 310.64 ± 13
411.15 K | 311.13 ± 13
412.15 K | 311.56 ± 13
